Measured values from PubChem BioAssay (NCI).
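48-hour exposure; five concentrations; linearly interpolated endpoints. The concentration for full growth arrest is given as TGI.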

Tests used:
Assay in all cases: growth of human tumour cells (NCI), 48 h
[1] = tested on: CAKI-1 renal
[2] = tested on: COLO 205 colon
[3] = tested on: HCC-2998 colon
[4] = tested on: HCT-116 colon
[5] = tested on: HL-60(TB) leukemia
[6] = tested on: M14 melanoma
[7] = tested on: NCI-H226 lung
[8] = tested on: NCI-H23 lung
[9] = tested on: OVCAR-3 ovarian
[10] = tested on: RXF 393 renal
[11] = tested on: SF-295 CNS
[12] = tested on: SF-539 CNS
[13] = tested on: SK-MEL-2 melanoma
[14] = tested on: SK-MEL-28 melanoma
[15] = tested on: SNB-19 CNS
[16] = tested on: SR leukemia
[17] = tested on: MDA-MB-435
[18] = tested on: NCI/ADR-RES ovarian
[19] = tested on: PC-3 prostate
[20] = tested on: T-47D breast

| Compound | TGI [1] [µM] | TGI [2] [µM] | TGI [3] [µM] | TGI [4] [µM] | TGI [5] [µM] | TGI [6] [µM] | TGI [7] [µM] | TGI [8] [µM] | TGI [9] [µM] | TGI [10] [µM] | TGI [11] [µM] | TGI [12] [µM] | TGI [13] [µM] | TGI [14] [µM] | TGI [15] [µM] | TGI [16] [µM] | TGI [17] [µM] | TGI [18] [µM] | TGI [19] [µM] | TGI [20] [µM] |
| --- | --- | --- | --- | --- | --- | --- | --- | --- | --- | --- | --- | --- | --- | --- | --- | --- | --- | --- | --- | --- |
| C=CCC1(CN(C)C)CC/C(=C\c2ccc(Cl)cc2)C1=O (configuration not stated) | > 100 | > 59.8 | > 70.5 | > 94.5 | 74.4 | > 64.9 | > 100 | > 100 | > 100 | > 72.9 | > 85.3 | > 83.8 | > 100 | > 100 | > 100 | 20.3 | – | – | – | – |
| C=C(C)C1CCC2(C)CC1c1c(c(C)cc3c1[nH]c1ccccc13)O2 (configuration not stated) | – | > 25 | > 25 | > 25 | > 25 | > 25 | > 25 | – | > 25 | – | – | > 25 | > 25 | > 25 | > 25 | > 25 | – | – | – | – |
| C=CCN1CCC(O)(c2cc(C(=O)OCC)[nH]c2-c2cc(C)no2)C1 (configuration not stated) | > 100 | > 100 | – | > 100 | > 100 | > 100 | > 100 | > 100 | > 100 | > 100 | > 100 | > 100 | > 100 | > 100 | > 100 | – | > 100 | > 100 | > 100 | > 100 |
| COC(=O)[C@@]1(C)/C(=N/NS(=O)(=O)c2ccc(C)cc2)CCC[C@@H]1C | > 100 | > 100 | > 100 | > 100 | > 100 | > 100 | > 100 | > 100 | > 100 | > 100 | > 100 | > 100 | > 100 | > 100 | > 100 | 43.6 | – | – | – | – |
| COc1ccc(OC)c(/C=C(/C#N)c2ccccc2)c1 | > 100 | > 100 | – | > 100 | 19.6 | > 100 | > 100 | > 100 | 88.2 | 38.7 | > 100 | > 100 | 54.7 | > 100 | > 100 | – | – | – | – | – |
| COc1ccc(C(C#N)NNC(=O)Cc2ccccc2)cc1OC (configuration not stated) | > 100 | > 100 | – | > 100 | > 100 | > 100 | > 100 | > 100 | – | > 100 | > 100 | > 100 | > 100 | > 100 | – | > 100 | – | – | – | – |
| CC1(C)CC(=O)CC(=Nc2ccc([N+](=O)[O-])cc2)C1 | – | > 100 | > 100 | 40.9 | > 100 | > 100 | > 100 | > 100 | > 100 | > 100 | > 100 | – | > 100 | > 100 | – | 88.5 | – | – | – | – |
| O=[N+]([O-])c1ccc(-c2cnc3ccccn23)cc1 | > 100 | > 100 | – | > 100 | > 100 | > 100 | > 100 | > 100 | > 100 | > 100 | > 100 | > 100 | > 100 | > 100 | > 100 | > 100 | – | – | – | – |
